In PMC8776094, “Reactive Oxygen Species Production Is Responsible for Antineoplastic Activity of Osmium, Ruthenium, Iridium and Rhodium Half-Sandwich Type Complexes with Bidentate Glycosyl Heterocyclic Ligands in Various Cancer Cell Models” (International Journal of Molecular Sciences, 2022):

What was measured:
Assay type in all cases: cell-based
[1] = tested on: Saos, an osteosarcoma cell line; assay: SRB assay, 48 h, cytostasis, Saos; details: for IC50 / Saos Max. Inh. (%): SRB assay; for Saos Max. Inh. (%): ND = not detected
Source text: (§1) We turned next to assessing whether the cytostatic activity of Os-3, Os-4, Os-5, Os-6 and Ir-6 complexes is specific for ovarian cancer cell lines or if they may be active on other cell lines. To that end, we tested the complexes on another carcinoma cell line (Capan2, a pancreatic adenocarcinoma cell line), on a sarcoma cell line (Saos, an osteosarcoma cell line) and on a lymphoma cell line (L428, a Hodgkin’s lymphoma cell line).
Saos cells were maintained in DMEM (4.5 g/L glucose) medium, supplemented with 10% fetal calf serum, 2 mM glutamine, and 1% penicillin-streptomycin.
(§2) The assay was performed similarly to the method used in [73]. Cells were seeded in 96-well plates the day before the assay. Cells were treated with the compounds for 48 h, with the exception of L428, where 96 h of treatment was applied. Cells were fixed with 10% trichloroacetic acid (TCA). Fixed cells were washed in distilled water 3 times, followed by staining with SRB (0.4 m/V% dissolved in 1% acetic acid) for 10 min. The stained cells were washed in 1% acetic acid 5 times; the acetic acid was removed, and the cells were left to dry. Protein-bound SRB was released by adding 100 µL 10 mM Tris base. Plates were measured in a plate photometer (Thermo Scientific Multiscan GO spectrophotometer, Waltham, MA, USA) at 540 nm. On each plate, wells were designed to contain untreated cells. In calculations, the readings for these wells were considered as 1 and all readings were expressed relative to these values.
(§3) Statistical analysis was performed using the 8.0.1 version of Graphpad Prism. Values were tested for normal distribution, using the d’Agostino and Pearson normality test. When necessary, values were log-normalized or were normalized using the Box-Cox normalization method or using a two-step transformation, as indicated in the figure captions. Nonlinear regression was performed using the built-in “[Inhibitor] vs. Response—Variable slope (four parameters), least-square fit” utility of Graphpad, yielding the IC50 and Hill slope values.
(§4) Here, 1.5 × 10^3 Capan2, 3 × 10^3 Saos cells and 10^4 L428 cells were plated onto 96-well plates. Capan2 and Saos cells were treated with the compounds in the concentrations indicated for 48 h for an SRB assay. L428 cells were treated with the compounds in the concentrations indicated for 96 h, then cells were counted using conventional microscopy and a Burker chamber. Data are represented as average ± SD, from three biological replicates; individual assays were performed in duplicate. Values were normalized for vehicle-treated cells; the absorbance for vehicle-treated cells is equal to 1. A one-way ANOVA, followed by a Kruskal–Wallis test, was performed individually for each compound. The results of the statistical analysis are presented in an Excel spreadsheet at https://figshare.com/s/28d14597d5041f08eb08 (accessed on 6 January 2022). Nonlinear regression was performed on the data.

[2] = tested on: L428, a Hodgkin's lymphoma cell line; assay: Cytostasis assay, 96 h, L428; details: for cytostatic activity on L428 cells (in words): 96 h; for L428 Max. Inh. (%): 96 h treatment, ND = not detected
Method: (§5) The compounds were tested between 0.001694 and 33.3333 µM, using a 4-hour-long MTT test to assess rapid toxicity and a 48-hour-long SRB assay to assess the long-term effects of the inhibition of proliferation (cytostasis). The MTT assay assesses the activity of mitochondrial complex I and detects rapid, direct toxicity, as well as indicating apoptosis and necrosis. The SRB assay measures the total protein content that is proportional to cell numbers; therefore, the assay can detect changes in cell numbers and can thus be used as a readout for cell proliferation. The SRB assay was performed after 48 h of treatment (with the exception of L428 cells, which were tested for 96 h due to their slower proliferation rate). In this setting, the SRB assay informs us of long-term changes to cell proliferation. We assessed the maximal inhibition within that concentration range, and descriptive statistics were performed. We performed a one-way ANOVA, followed by the Kruskal–Wallis test, regardless of the normal or non-normal distribution of the data. Due to the large number of significance values, the results of the significance calculations are provided in an Excel spreadsheet at https://figshare.com/s/28d14597d5041f08eb08 (accessed on 6 January 2022), among other primary data of the study. Where possible, nonlinear regression was performed on the curves to determine the IC50 values ((inhibitor) vs. response—variable slope (four parameters) method with Graphpad v8.0.1). […] In Table 5, we added the IC50 values that we determined for a set of 4 active ruthenium half-sandwich complexes we identified previously, to be used in subsequent structure-activity relationship (SAR) analyses.
as §1
L428 cells were maintained in RPMI 1640 medium, supplemented with 10% fetal calf serum, 2 mM glutamine, and 1% penicillin-streptomycin.
as §2
as §4, with “The results of the statistical analysis are presented in an Excel spreadsheet at https://figshare.com/s/28d14597d5041f08eb08 (accessed on 6 January 2022). Nonlinear regression was performed on the data.” left out

[3] = tested on: ID8 ovarian cancer cell line; assay: SRB assay, 48 h, cytostasis, ID8; details: for IC50 / ID8 Max. Inh. (%): SRB assay, 48 h; for ID8 Max. Inh. (%): ND = not detected
Method: as §5
ID8 cells were cultured in a high-glucose DMEM (4.5 g/L glucose) medium, supplemented with 4% fetal calf serum, 2 mM glutamine, 1% penicillin-streptomycin, and 1% ITS supplement (I3146).
as §2, §3

Row | Compound | cytostatic activity on Saos cells (in words) [1] | IC50 [1] [µM] | Saos Max. Inh. (%) [1] [%] | cytostatic activity on L428 cells (in words) [2] | L428 Max. Inh. (%) [2] [%] | cytostatic activity on ID8 cells, SRB assay (in words) ([3]; 48 h treatment) | IC50 [3] [µM] | ID8 Max. Inh. (%) [3] [%]
1 | Cc1c(C)c(C)[c-](C)c1C.F[P-](F)(F)(F)(F)F.O=C(OCC1OC(n2cc(-c3ccccn3)nn2)C(OC(=O)c2ccccc2)C(OC(=O)c2ccccc2)C1OC(=O)c1ccccc1)c1ccccc1.[Cl][Ir+2] (mixture of isomers) [Ir-6] | active on all cell lines | 2.71 | 100 | active on all cell lines | 100 | pronounced cytostatic activity | 0.98 | 100
2 | Cc1ccc(C(C)C)cc1.F[P-](F)(F)(F)(F)F.O=C(OCC1OC(c2nnc(-c3ccccn3)o2)C(OC(=O)c2ccccc2)C(OC(=O)c2ccccc2)C1OC(=O)c1ccccc1)c1ccccc1.[Cl][Os+] (mixture of isomers) [Os-3] | active on all cell lines | – | 65 | active on all cell lines | 100 | – | 5.94 | 100
3 | Cc1ccc(C(C)C)cc1.F[P-](F)(F)(F)(F)F.O=C(OCC1OC(c2nnc(-c3ccccn3)o2)C(OC(=O)c2ccccc2)C(OC(=O)c2ccccc2)C1OC(=O)c1ccccc1)c1ccccc1.[Cl][Os+] (mixture of isomers) [Os-4] | active on all cell lines | 8.78 | 100 | active on all cell lines | 100 | – | 6.95 | 100
4 | Cc1ccc(C(C)C)cc1.F[P-](F)(F)(F)(F)F.O=C(OC1COC(c2nnc(-c3ccccn3)o2)C(OC(=O)c2ccccc2)C1OC(=O)c1ccccc1)c1ccccc1.[Cl][Os+] (mixture of isomers) [Os-5] | active on all cell lines | 8.52 | 100 | active on all cell lines | 100 | – | 1.96 | 100
5 | Cc1ccc(C(C)C)cc1.F[P-](F)(F)(F)(F)F.O=C(OCC1OC(n2cc(-c3ccccn3)nn2)C(OC(=O)c2ccccc2)C(OC(=O)c2ccccc2)C1OC(=O)c1ccccc1)c1ccccc1.[Cl][Os+] (mixture of isomers) [Os-6] | active on all cell lines | 3.6 | 100 | active on all cell lines | 100 | – | 1.96 | 100
